The values below come from US20100016598A1 (WYETH, priority 2008, published 2010).

The target in experiment [1] is T1, alpha3 (ganglionic) nACh receptors (Homo sapiens, UniProt P30926+P32297).
T1 construct: using the native SH-SY5Y cell line; endogenous in cells; host or cells: SH-SY5Y
In words: calcium-monitoring FLIPR selectivity assay using the native SH-SY5Y cell line. The class given is cell-based. As to conditions: read-out: Alpha 3 EC50. The source says: Functional FLIPR assays were developed in order to test the selectivity of compounds against the alpha1 (muscular) and alpha3 (ganglionic) nACh receptors and the structurally related 5-HT3 receptor. […] In order to test selectivity against the 5-HT3 receptor, a recombinant cell line was constructed expressing the human 5-HT3A receptor in HEK 293 cells and a calcium-monitoring FLIPR assay employed.

Experiment [2] addresses T2, alpha7 nicotinic acetylcholine receptor (Rattus norvegicus, UniProt Q05941).
T2 construct: expressed in transfected cells
The experiment in a line: functional FLIPR assay, alpha7 nAChR stably expressed in GH4C1 cells. Format: cell-based. The note with it: GH4C1 cell line expressing the alpha7 nAChR; concentration-response curves; read-out: Alpha 7 EC50.
From the text: Rat GH4C1 cells were then transfected with the rat receptor, cloned and analyzed for functional alpha7 nicotinic receptor expression employing a FLIPR assay to measure changes in intracellular calcium concentrations.
The FLIPR system allows the measurements of real time Ca^2+-concentration changes in living cells using a Ca^2+ sensitive fluorescence dye (such as Fluo4). This instrument enables the screening for agonists and antagonists for alpha 7 nAChR channels stably expressed in GH4C1 cells.
GH4C1 cells stably transfected with rat-alpha7-nAChR (see above) were used. These cells are poorly adherent and therefore pretreatment of flasks and plates with poly-D-lysine was carried out. Cells are grown in 150 cm^2 T-flasks, filled with 30ml of medium at 37° C. and 5% CO2.
EC50 and IC50 values were calculated using the IDBS XLfit4.1 software package employing a sigmoidal concentration-response (variable slope) equation:
Certain compounds of the present disclosure were tested using the functional FLIPR primary screening assay employing the stable recombinant GH4C1 cell line expressing the alpha7 nAChR. Hits identified were validated further by generation of concentration-response curves.

SMILES strings stand for the structures.

T1 sequence (P32297 32-505): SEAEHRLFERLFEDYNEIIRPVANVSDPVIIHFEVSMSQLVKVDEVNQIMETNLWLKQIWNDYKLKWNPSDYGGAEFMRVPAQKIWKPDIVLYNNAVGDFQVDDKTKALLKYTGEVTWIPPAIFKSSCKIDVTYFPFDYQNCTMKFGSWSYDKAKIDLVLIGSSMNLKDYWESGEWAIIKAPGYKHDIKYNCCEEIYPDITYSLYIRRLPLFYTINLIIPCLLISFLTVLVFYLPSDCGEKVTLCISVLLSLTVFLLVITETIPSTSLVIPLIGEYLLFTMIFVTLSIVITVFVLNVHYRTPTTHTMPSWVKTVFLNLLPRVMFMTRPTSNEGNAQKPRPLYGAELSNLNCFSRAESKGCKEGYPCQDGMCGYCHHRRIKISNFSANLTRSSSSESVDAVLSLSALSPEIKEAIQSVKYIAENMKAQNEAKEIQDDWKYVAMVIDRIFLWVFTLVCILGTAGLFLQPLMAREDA
T1 sequence (P30926 22-498): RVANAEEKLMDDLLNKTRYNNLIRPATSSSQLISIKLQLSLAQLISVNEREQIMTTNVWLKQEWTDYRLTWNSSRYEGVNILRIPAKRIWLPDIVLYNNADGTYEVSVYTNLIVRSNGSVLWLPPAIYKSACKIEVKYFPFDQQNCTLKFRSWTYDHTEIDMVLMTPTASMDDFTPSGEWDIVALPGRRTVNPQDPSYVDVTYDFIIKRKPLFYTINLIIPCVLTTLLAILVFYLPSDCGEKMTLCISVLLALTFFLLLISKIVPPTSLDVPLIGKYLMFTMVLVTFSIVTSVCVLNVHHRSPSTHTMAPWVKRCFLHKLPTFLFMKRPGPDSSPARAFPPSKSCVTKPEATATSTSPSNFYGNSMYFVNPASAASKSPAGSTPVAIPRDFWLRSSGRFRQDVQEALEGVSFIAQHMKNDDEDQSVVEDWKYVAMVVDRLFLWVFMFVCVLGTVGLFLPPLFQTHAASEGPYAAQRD
T2 sequence (Q05941 23-502): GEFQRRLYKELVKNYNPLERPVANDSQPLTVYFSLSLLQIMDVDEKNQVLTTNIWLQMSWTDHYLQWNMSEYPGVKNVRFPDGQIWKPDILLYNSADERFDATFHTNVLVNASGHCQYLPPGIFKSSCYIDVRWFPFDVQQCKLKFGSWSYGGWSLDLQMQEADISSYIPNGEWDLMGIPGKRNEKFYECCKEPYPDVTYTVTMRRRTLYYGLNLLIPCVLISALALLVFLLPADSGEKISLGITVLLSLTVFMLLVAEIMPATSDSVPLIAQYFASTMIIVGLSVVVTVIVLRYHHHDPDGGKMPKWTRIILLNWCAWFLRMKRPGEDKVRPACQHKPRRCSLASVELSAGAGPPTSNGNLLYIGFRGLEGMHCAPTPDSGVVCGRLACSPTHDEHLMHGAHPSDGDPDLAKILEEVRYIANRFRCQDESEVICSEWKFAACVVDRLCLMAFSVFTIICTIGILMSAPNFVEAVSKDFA

Take `COc1ncccc1-c1ccc(NC(=O)NCCCCN2CCCCC2)cc1`: the EC50 in experiment [1] turned out to be 5.67 µM; in experiment [2], 0.06 µM.

As usually defined, the EC50 is the concentration that produces a half-maximal response.
